Results reported in patent US20250195513A1, “DEGRADATION OF IRAK4 BY CONJUGATION OF IRAK4 INHIBITORS WITH E3 LIGASE LIGAND AND METHODS OF USE” (BeiGene, Ltd., priority 2022, published 2025).
Like-named read-outs stand apart in the source and are kept apart here.

Biological target: T1, IRAK4 (Homo sapiens, UniProt Q9NWZ3)
T1 construct: endogenous in cells; host or cells: Karpas299
T1 sequence (Q9NWZ3 1-460): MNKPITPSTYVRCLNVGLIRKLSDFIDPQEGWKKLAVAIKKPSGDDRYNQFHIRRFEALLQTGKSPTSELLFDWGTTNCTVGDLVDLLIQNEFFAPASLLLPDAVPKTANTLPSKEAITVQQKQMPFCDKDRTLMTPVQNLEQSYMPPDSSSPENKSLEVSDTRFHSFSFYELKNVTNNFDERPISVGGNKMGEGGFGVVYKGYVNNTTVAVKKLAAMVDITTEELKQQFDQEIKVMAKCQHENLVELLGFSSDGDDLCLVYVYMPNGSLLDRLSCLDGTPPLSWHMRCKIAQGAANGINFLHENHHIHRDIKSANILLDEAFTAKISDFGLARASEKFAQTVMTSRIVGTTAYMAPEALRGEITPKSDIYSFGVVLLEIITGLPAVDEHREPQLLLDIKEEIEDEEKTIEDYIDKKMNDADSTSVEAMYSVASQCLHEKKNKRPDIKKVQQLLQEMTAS
Test: IRAK4 Degradation Assay (Karpas299, HTRF/TR-FRET)
Format: cell-based
Summary of the method: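 Compound potency as DC50 (IC50) came from four-parameter fits of percent IRAK4 degradation. IRAK4 was measured by HTRF (665/620 nm) in lysates of Karpas299 cells seeded at 0.2 million per well. Cells had been treated with compound dilutions for 5 or 24 h.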

[1] = Karpas-299 cells, 5 h treatment, maximum percentage of degradation, read-out: IRAK4 in Karpas-299 (5 h) Dmax (%)
[2] = Karpas-299 cells, 5 h treatment, read-out: IRAK4 in Karpas-299 (5 h) DC50
[3] = Karpas-299 cells, 24 h treatment, maximum percentage of degradation, read-out: IRAK4 in Karpas-299 (24 h) Dmax (%)
[4] = Karpas-299 cells, 24 h treatment, read-out: IRAK4 in Karpas-299 (24 h) DC50

SMILES	Dmax [1] [%]	DC50 [2] [nM]	Dmax [3] [%]	DC50 [4] [nM]	DC50 (Degradation (Karpas-299), comparison table, Linker Type A, read-out: Compound (Linker Type A) DC50) [nM]	Dmax (Degradation (Karpas-299), comparison table, Linker Type A, read-out: Compound (Linker Type A) Dmax (%)) [%]
CC(C)(O)c1cc2nc(C3CCN(C4CCN(C(=O)[C@H]5CCN(c6ccc(N7CCC(=O)NC7=O)cc6)C5)CC4)CC3)cn2cc1NC(=O)c1cccc(C(F)(F)F)n1 [Example 128, (S)—N-(2-(1′-(1-(4-(2,4-dioxotetrahydropyrimidin-1(2H)-yl)phenyl)pyrrolidine-3-carbonyl)-[1,4′-bipiperidin]-4-yl)-7-(2-hydroxypropan-2-yl)imidazo[1,2-a]pyridin-6-yl)-6-(trifluoromethyl)picolinamide]	90	41	100	7.2	–	–
COc1cc2nn(C3CCN(C4CN(C(=O)[C@@H]5CCN(c6cc(F)c([C@H]7CCC(=O)NC7=O)c(F)c6)C5)C4)CC3)cc2cc1NC(=O)c1cccc(C(F)(F)F)n1 [Example 42, N-(2-(1-(1-((R)-1-(4-((R)-2,6-dioxopiperidin-3-yl)-3,5-difluorophenyl)pyrrolidine-3-carbonyl)azetidin-3-yl)piperidin-4-yl)-6-methoxy-2H-indazol-5-yl)-6-(trifluoromethyl)picolinamide]	83	4.9	95	2.2	–	–
CC(C)(O)c1cc2nn(C3CCN([C@@H]4CCN(C(=O)C5CN(c6cc(F)c(N7CCC(=O)NC7=O)c(F)c6)C5)CC4(F)F)CC3)cc2cc1NC(=O)c1ccc2cc(C#N)cnn12 [Example 198, (R)-3-cyano-N-(2-(1′-(1-(4-(2,4-dioxotetrahydropyrimidin-1(2H)-yl)-3,5-difluorophenyl)azetidine-3-carbonyl)-3′,3′-difluoro-[1,4′-bipiperidin]-4-yl)-6-(2-hydroxypropan-2-yl)-2H-indazol-5-yl)pyrrolo[1,2-b]pyridazine-7-carboxamide]	–	–	93	9	–	–
CC(C)(O)c1cc2nn([C@H]3CC[C@H](N4CCN(C(=O)C5CN(c6ccc(N7CCC(=O)NC7=O)cc6)C5)CC4)CC3)cc2cc1NC(=O)c1cccc(C(F)(F)F)n1 [Example 40, N-(2-((1r,4r)-4-(4-(1-(4-(2,4-dioxotetrahydropyrimidin-1(2H)-yl)phenyl)azetidine-3-carbonyl)piperazin-1-yl)cyclohexyl)-6-(2-hydroxypropan-2-yl)-2H-indazol-5-yl)-6-(trifluoromethyl)picolinamide]	89	23	99	0.9	–	–
COc1cc2nn([C@H]3CC[C@H](CN4CCN(C(=O)[C@H]5CC[C@H](Oc6ccc(N7CCC(=O)NC7=O)cc6)CC5)CC4)CC3)cc2cc1NC(=O)c1cccc(C(F)(F)F)n1 [Example 6, N-(2-((1R,4r)-4-((4-((1r,4R)-4-(4-(2,4-dioxotetrahydropyrimidin-1(2H)-yl)phenoxy)cyclohexane-1-carbonyl)piperazin-1-yl)methyl)cyclohexyl)-6-methoxy-2H-indazol-5-yl)-6-(trifluoromethyl)picolinamide]	–	–	11	> 10000	> 10000	11
O=C1CC[C@H](c2c(F)cc(N3CC[C@@H](C(=O)N4CCN([C@H]5CC[C@H](n6cc7cc(NC(=O)c8cccc(C(F)(F)F)n8)c(C(=O)N[C@H]8C[C@H](CO)C8)cc7n6)CC5)CC4)C3)cc2F)C(=O)N1 [Example 168, 2-((1R,4R)-4-(4-((R)-1-(4-((R)-2,6-dioxopiperidin-3-yl)-3,5-difluorophenyl)pyrrolidine-3-carbonyl)piperazin-1-yl)cyclohexyl)-N-((1r,3R)-3-(hydroxymethyl)cyclobutyl)-5-(6-(trifluoromethyl)picolinamido)-2H-indazole-6-carboxamide]	87	5.2	100	1.3	–	–
NC(=O)c1nn([C@H]2CC[C@H](N3CCN(C4CC(c5ccc(N[C@H]6CCC(=O)NC6=O)cc5)C4)CC3)CC2)cc1NC(=O)c1coc(-c2ccnc(NCC(F)(F)F)c2)n1 (stereo partly drawn) [Example 10, N-(3-carbamoyl-1-((1r,4r)-4-(4-(3-(4-(((S)-2,6-dioxopiperidin-3-yl)amino)phenyl)cyclobutyl)piperazin-1-yl)cyclohexyl)-1H-pyrazol-4-yl)-2-(2-((2,2,2-trifluoroethyl)amino)pyridin-4-yl)oxazole-4-carboxamide]	–	–	92	5.4	–	–
O=C1CC[C@H](c2c(F)cc(N3CC(C(=O)N4CCN([C@H]5CC[C@H](n6cc(NC(=O)c7coc(-c8ccnc(NCC9CC9)c8)n7)c(C(F)F)n6)CC5)C(=O)C4)C3)cc2F)C(=O)N1 [Example 100, 2-(2-((cyclopropylmethyl)amino)pyridin-4-yl)-N-(3-(difluoromethyl)-1-((1r,4r)-4-(4-(1-(4-((R)-2,6-dioxopiperidin-3-yl)-3,5-difluorophenyl)azetidine-3-carbonyl)-2-oxopiperazin-1-yl)cyclohexyl)-1H-pyrazol-4-yl)oxazole-4-carboxamide]	–	–	97	2.2	–	–
CC(C)(O)c1cc2nn(C3CCN(C4CCN(C(=O)[C@H]5CCN(c6ccc(N7CCC(=O)NC7=O)cc6)C5)CC4)CC3)cc2cc1NC(=O)c1cccc(C(F)(F)F)n1 [Example 163, (S)—N-(2-(1′-(1-(4-(2,4-dioxotetrahydropyrimidin-1(2H)-yl)phenyl)pyrrolidine-3-carbonyl)-[1,4′-bipiperidin]-4-yl)-6-(2-hydroxypropan-2-yl)-2H-indazol-5-yl)-6-(trifluoromethyl)picolinamide]	–	–	95	3.8	–	–
N#Cc1cnn2c(C(=O)Nc3cc4cn([C@H]5CC[C@H](N6CCN(C(=O)C7CN(c8cc(F)c([C@H]9CCC(=O)NC9=O)c(F)c8)C7)CC6)CC5)nc4c4c3OC(F)(F)O4)ccc2c1 [Example 384, 3-cyano-N-(2-((1r,4r)-4-(4-(1-(4-((R)-2,6-dioxopiperidin-3-yl)-3,5-difluorophenyl)azetidine-3-carbonyl)piperazin-1-yl)cyclohexyl)-7,7-difluoro-2H-[1,3]dioxolo[4,5-g]indazol-5-yl)pyrrolo[1,2-b]pyridazine-7-carboxamide]	–	–	97	2.2	–	–
CC1(C)OC(c2ccc3cc(C#N)cnn23)=Nc2cc3cn(C4CCN(C5CCN(C(=O)[C@@H]6CCN(c7cc(F)c([C@H]8CCC(=O)NC8=O)c(F)c7)C6)CC5)CC4)nc3cc21 [Example 412, 7-(2-(1′-((R)-1-(4-((R)-2,6-dioxopiperidin-3-yl)-3,5-difluorophenyl)pyrrolidine-3-carbonyl)-[1,4′-bipiperidin]-4-yl)-8,8-dimethyl-2,8-dihydro-[1,3]oxazino[4,5-f]indazol-6-yl)pyrrolo[1,2-b]pyridazine-3-carbonitrile]	–	–	5	> 10000	–	–
O=C1CCN(c2ccc(N3CC[C@@H](C(=O)N4CCN([C@H]5CC[C@H](n6cc(NC(=O)c7coc(-c8ccnc(NCC(F)(F)F)c8)n7)c(C(F)F)n6)CC5)CC4)C3)cc2)C(=O)N1 [Example 14, N-(3-(difluoromethyl)-1-((1R,4r)-4-(4-((R)-1-(4-(2,4-dioxotetrahydropyrimidin-1(2H)-yl)phenyl)pyrrolidine-3-carbonyl)piperazin-1-yl)cyclohexyl)-1H-pyrazol-4-yl)-2-(2-((2,2,2-trifluoroethyl)amino)pyridin-4-yl)oxazole-4-carboxamide]	–	–	70	3.4	–	–
O=C1CC[C@H](c2c(F)cc(N3CC(C(=O)N4CCN([C@H]5CC[C@H](n6cc7cc(NC(=O)c8cccc(C(F)(F)F)n8)c(C(=O)NC8CC8)cc7n6)CC5)CC4)C3)cc2F)C(=O)N1 [Example 130]	–	–	98	0.5	–	–
CC(C)(O)c1cc2nn([C@H]3CC[C@H](N4CCN(C(=O)[C@@H]5CCN(c6cc(F)c([C@H]7CCC(=O)NC7=O)c(F)c6)C5)CC4)CC3)cc2cc1NC(=O)c1cccn(C2CC2)c1=O [Example 103, 1-cyclopropyl-N-(2-((1R,4r)-4-(4-((R)-1-(4-((R)-2,6-dioxopiperidin-3-yl)-3,5-difluorophenyl)pyrrolidine-3-carbonyl)piperazin-1-yl)cyclohexyl)-6-(2-hydroxypropan-2-yl)-2H-indazol-5-yl)-2-oxo-1,2-dihydropyridine-3-carboxamide]	–	–	90	4.4	–	–
O=C1CCN(c2ccc(N3CC[C@H](C(=O)N4CCN([C@H]5CC[C@H](n6cc(NC(=O)c7coc(-c8ccnc(NCC(F)(F)F)c8)n7)c(C(F)F)n6)CC5)CC4)C3)cc2)C(=O)N1 [Example 15, N-(3-(difluoromethyl)-1-((1S,4r)-4-(4-((S)-1-(4-(2,4-dioxotetrahydropyrimidin-1(2H)-yl)phenyl)pyrrolidine-3-carbonyl)piperazin-1-yl)cyclohexyl)-1H-pyrazol-4-yl)-2-(2-((2,2,2-trifluoroethyl)amino)pyridin-4-yl)oxazole-4-carboxamide]	–	–	30	> 10000	–	–
